The values that follow come from ChEMBL document CHEMBL1201862, “PubChem BioAssay data set” (2004).

The structures appear in SMILES notation. Activity calls are given as the source filed them.

For experiment [1], the target named is Protein disulfide-isomerase (Homo sapiens, UniProt P07237). Kind of experiment: PDI inhibitors, insulin aggregation turbidity, dose response, biochemical, absorbance, cherry-picked samples (AID 602350). Type of experiment: functional.
In experiment [2] the target is T1, Heat shock factor protein 1 (Mus musculus, UniProt P38532).
T1 sequence (P38532 whole entry): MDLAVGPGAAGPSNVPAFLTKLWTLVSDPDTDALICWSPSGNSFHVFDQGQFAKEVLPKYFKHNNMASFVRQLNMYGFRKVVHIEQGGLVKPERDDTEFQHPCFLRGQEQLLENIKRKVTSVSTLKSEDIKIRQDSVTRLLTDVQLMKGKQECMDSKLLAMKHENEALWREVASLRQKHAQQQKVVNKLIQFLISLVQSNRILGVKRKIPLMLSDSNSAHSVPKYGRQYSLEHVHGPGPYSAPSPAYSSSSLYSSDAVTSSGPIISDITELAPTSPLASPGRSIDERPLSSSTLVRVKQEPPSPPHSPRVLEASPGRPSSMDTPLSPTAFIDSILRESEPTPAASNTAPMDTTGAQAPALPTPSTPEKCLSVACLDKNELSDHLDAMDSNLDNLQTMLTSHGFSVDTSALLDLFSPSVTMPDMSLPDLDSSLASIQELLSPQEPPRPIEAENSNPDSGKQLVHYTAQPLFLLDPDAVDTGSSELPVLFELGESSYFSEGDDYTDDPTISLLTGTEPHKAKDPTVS
Kind of experiment: HSF1 potentiators in luciferase reporter cells, confirmation, cell-based, NIH3T3, luminescence, dose retest (AID 435004).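 Further: stress induced by proteasome inhibitor MG132 added 30 min after compound; luciferase reporter driven by HSF1 response element in NIH3T3 cells; actives raise luminescence as potentiators of the MG132 stress response.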 In kind it is functional. In general terms: In a reporter assay the amount or activity of a reporter protein is the signal.

Experiment [3] concerns the target Beta-2 adrenergic receptor (Homo sapiens, UniProt P07550). Nature of the experiment: beta2AR agonists driving receptor internalization, dose response, cell-based, FAP fluorogen, flow cytometry, cherry pick 1 (AID 588763). Type of experiment: functional.
For experiment [4], the system named is BJ. Nature of the experiment: cytotoxicity toward BJ-TERT fibroblasts, dose response, cell-based, RAS-independent, luminescence (AID 1933). Type of experiment: functional. The note with it: Homo sapiens.
The target in experiment [5] is T1, Heat shock factor protein 1. Kind of experiment: inhibition of MG132-induced HSE-luciferase signal, confirmation, cell-based, NIH3T3, luminescence, dose retest (AID 2382).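 Further: NIH3T3 fibroblasts with HSF1-driven luciferase reporter stressed by proteasome inhibitor MG132; luminescence from HSF1-driven luciferase expression after 8 hours of MG132 stress.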 Type of experiment: functional.
For experiment [6], the system named is BJ. Nature of the experiment: cells. The note with it: Homo sapiens. In kind it is functional, cell-based.
For experiment [7], the system named is BJ. Nature of the experiment: cytotoxicity toward BJ-TERT-LT-ST fibroblasts, dose response, cell-based, RAS-independent, luminescence (AID 1935).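 Further: BJ fibroblasts immortalized with TERT plus LT and ST oncogenes.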 Type of experiment: functional. The note with it: Homo sapiens.
Experiment [8] is described as follows: cytotoxicity toward DRD oncogenic fibroblasts, dose response, cell-based, non-viral oncogenic, luminescence (AID 1934). In kind it is functional. The note with it: Homo sapiens.
The test system of experiment [9] is BJ. Kind of experiment: cytotoxicity toward Ras-transformed BJeLR fibroblasts, dose response, cell-based, alamar blue fluorescence, cherrypicked samples (AID 2631).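 Further: confirmatory dose-response assay in RAS-dependent BJ fibroblasts engineered with TERT, LT and ST, with cytotoxicity read by fluorescence.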 Type of experiment: functional. The note with it: Homo sapiens. For orientation: Resazurin is reduced to fluorescent resorufin, in cell work by metabolically active cells.
Experiment [10] can be described thus: NIH-3T3 fibroblast cytotoxicity, dose response, cytotoxicity control, cell-based, fluorescence, Alamar Blue, secondary assay (AID 2327).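 Further: NIH-3T3 mouse fibroblasts cultured with fluconazole at 8 µg/mL.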 In kind it is functional.
Experiment [11] can be described thus: inhibitors of firefly luciferase expression or activity, dose response, H4 neuroglioma cells, luminescence (AID 1990). In kind it is functional, cell-based.
Experiment [12] can be described thus: Luminescence Cell-Based Dose Response HTS to Identify Inhibitors of 5'UTR Stem-Loop Driven Prion Protein mRNA Translation in H4 Neuroglioblastoma Cells. [Related pubchem assays: 1827 (Project Summary), 1813 (Primary HTS)]. Type of experiment: functional.
A short description of experiment [13]: inhibitors of SNCA 5'UTR-driven reporter translation, confirmation, H4 neuroglioma cells, luminescence (AID 1988). Type of experiment: functional, cell-based.
Experiment [14] is described as follows: C. albicans growth with fluconazole, confirmation, fluorescence, retest (AID 2467). Type of experiment: functional, cell-based.
The nature of experiment [15]: microbe, parasite or virus in culture. Type of experiment: functional. The note with it: Mycobacterium tuberculosis.
In experiment [16] the target is T2, Ubiquitin-conjugating enzyme E2 N (Homo sapiens, UniProt P61088).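 Further: Dose-response confirmation in a TR-FRET assay detecting UBC13-driven polyubiquitin chain formation, inhibition measured.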
T2 sequence (P61088 whole entry): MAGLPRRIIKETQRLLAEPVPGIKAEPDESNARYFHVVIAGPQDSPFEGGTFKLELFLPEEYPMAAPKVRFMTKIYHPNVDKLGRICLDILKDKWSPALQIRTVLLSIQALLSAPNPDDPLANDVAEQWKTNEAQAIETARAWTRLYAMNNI
In kind it is functional.

Another experiment has as its system INS1. Nature of the experiment: beta cell apoptosis inhibitors, cytokine rescue, dose response, luminescence, retest (AID 449756).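 Further: cell death triggered by IL-1 beta plus TNF-alpha plus IFN-gamma mixture; protective hits raise ATP signal compared with cytokine alone wells.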 In kind it is functional, cell-based. The note with it: Rattus norvegicus.
Experiment [17] in a line: inhibitors of PGC1a acetylation in cells, dose response, cell-based, cherry-picked samples (AID 720514).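 Further: potency may reflect raised or lowered acetylation signal.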 Type of experiment: functional.
The nature of experiment [18]: Fluorescence-based cell-based high throughput dose response assay for inhibitors of the interaction of nucleotide-binding oligomerization domain containing 2 (NOD2) and the receptor-interacting serine-threonine kinase 2 (RIPK2). Type of experiment: functional, Homo sapiens.
In a further experiment the target is Protein Wnt-3a (Mus musculus, UniProt P27467). Kind of experiment: Wnt3a-driven reporter signaling inhibition, dose response, selectivity assay for Gli-SUFU antagonist project, Wnt-LIGHT cells, luminescence (AID 651570).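 Further: Wnt-LIGHT reporter cells stimulated with conditioned medium from Wnt3a-producing cells.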 In kind it is functional. The note with it: read-out: IC50_Mean.
Protein Wnt-3a, sequence (P27467 whole entry): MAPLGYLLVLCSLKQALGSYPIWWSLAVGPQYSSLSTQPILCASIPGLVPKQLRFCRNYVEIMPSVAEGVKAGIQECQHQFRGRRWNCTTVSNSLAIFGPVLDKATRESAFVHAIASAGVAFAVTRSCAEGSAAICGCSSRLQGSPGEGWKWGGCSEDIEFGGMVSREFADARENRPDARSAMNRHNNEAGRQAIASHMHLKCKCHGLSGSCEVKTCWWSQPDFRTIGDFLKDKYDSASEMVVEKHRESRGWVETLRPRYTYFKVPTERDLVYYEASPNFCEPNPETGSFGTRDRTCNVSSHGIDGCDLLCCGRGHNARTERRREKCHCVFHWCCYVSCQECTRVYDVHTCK
The target in experiment [19] is Heat shock protein HSP 90-alpha (Homo sapiens, UniProt P07900). Type of experiment: functional, organism-based.
The next experiment relates to Vero. Nature of the experiment: Vero cell cytotoxicity, cytotoxicity control for flavivirus capping enzyme inhibitors (AID 588742). Type of experiment: functional. The note with it: Chlorocebus sabaeus.
Experiment [20] has as its target Dual specificity tyrosine-phosphorylation-regulated kinase 1A (Rattus norvegicus, UniProt Q63470). Type of experiment: biochemical, Homo sapiens.
Experiment [21] has as its target T3, Polyadenylate-binding protein 1 (Homo sapiens, UniProt P11940). Nature of the experiment: PABP1 MLLE–PAM2 interaction inhibitors, dose response, miRNA deadenylation inhibitor project, biochemical, fluorescence polarization, Cy5-PAM2 peptide, secondary (AID 602260). In kind it is functional. The note with it: read-out: IC50_Mean.
The target in experiment [22] is T3, Polyadenylate-binding protein 1. Nature of the experiment: PABP1 MLLE–PAM2 binding inhibitor potency, dose response, biochemical, fluorescence polarization, FITC-PAM2 peptide (AID 602259). In kind it is functional. The note with it: read-out: IC50_Mean.
For experiment [23], the target named is DNA (cytosine-5)-methyltransferase 1 (Homo sapiens, UniProt P26358). Kind of experiment: DNMT1 methyltransferase inhibitors, confirmation, biochemical, fluorescent molecular beacon (AID 602386). In kind it is functional.
DNA (cytosine-5)-methyltransferase 1, sequence (P26358 whole entry): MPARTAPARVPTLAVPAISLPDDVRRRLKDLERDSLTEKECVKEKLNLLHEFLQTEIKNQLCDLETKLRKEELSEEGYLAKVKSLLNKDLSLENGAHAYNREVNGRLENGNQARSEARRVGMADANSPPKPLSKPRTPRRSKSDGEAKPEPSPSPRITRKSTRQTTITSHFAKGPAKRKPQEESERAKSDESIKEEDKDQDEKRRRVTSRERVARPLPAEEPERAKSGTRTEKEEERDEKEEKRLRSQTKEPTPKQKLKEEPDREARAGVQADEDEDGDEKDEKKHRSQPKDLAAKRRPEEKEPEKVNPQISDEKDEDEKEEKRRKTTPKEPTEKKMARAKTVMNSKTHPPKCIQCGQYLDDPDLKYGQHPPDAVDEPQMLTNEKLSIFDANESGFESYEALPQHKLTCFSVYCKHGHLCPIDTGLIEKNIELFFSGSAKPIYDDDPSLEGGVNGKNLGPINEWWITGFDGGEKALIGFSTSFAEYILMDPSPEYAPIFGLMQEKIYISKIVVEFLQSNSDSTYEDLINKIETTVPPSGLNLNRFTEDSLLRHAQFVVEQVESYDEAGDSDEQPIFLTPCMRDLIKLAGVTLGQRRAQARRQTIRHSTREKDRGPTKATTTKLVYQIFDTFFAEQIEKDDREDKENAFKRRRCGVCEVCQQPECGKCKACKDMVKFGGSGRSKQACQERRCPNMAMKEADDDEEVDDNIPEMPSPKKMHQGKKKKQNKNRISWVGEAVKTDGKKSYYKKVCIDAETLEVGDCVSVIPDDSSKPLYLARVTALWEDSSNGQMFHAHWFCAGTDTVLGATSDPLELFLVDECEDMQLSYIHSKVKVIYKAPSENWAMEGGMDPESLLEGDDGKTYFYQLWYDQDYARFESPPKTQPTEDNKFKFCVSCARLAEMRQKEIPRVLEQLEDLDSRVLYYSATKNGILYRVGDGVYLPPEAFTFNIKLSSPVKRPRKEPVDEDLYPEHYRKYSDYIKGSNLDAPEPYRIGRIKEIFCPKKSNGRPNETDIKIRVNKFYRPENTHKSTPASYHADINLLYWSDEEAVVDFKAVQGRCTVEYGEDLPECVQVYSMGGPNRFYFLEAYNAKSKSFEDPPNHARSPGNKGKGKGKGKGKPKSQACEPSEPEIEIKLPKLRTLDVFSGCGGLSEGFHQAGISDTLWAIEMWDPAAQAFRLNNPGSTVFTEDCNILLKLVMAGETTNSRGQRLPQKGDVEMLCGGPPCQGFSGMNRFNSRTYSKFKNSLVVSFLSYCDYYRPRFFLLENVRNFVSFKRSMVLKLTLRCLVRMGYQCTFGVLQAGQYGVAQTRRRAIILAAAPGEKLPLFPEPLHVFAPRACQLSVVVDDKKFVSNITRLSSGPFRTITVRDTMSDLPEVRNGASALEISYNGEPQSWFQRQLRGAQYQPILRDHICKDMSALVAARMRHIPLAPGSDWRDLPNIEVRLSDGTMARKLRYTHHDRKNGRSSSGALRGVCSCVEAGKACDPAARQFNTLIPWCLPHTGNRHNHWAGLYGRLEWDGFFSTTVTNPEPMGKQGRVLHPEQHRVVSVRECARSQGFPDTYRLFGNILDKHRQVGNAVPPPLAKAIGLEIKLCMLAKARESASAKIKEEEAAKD
The target of experiment [24] is T4, Small ubiquitin-related modifier 2 (Homo sapiens, UniProt P61956). Nature of the experiment: SUMO2–SIM peptide binding inhibitors, dose response, selectivity assay for SUMO1 interaction inhibitor project, biochemical, fluorescence polarization, uHTS hits (AID 624385). In kind it is functional. The note with it: read-out: IC50_Mean.
T4 sequence (P61956 whole entry): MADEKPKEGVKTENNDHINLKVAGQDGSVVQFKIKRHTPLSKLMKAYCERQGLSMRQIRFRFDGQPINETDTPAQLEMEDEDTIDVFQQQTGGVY
The target of experiment [25] is T5, Small ubiquitin-related modifier 1 (Homo sapiens, UniProt P63165). Kind of experiment: inhibitors of SUMO1 peptide binding, dose response, biochemical, fluorescence polarization, uHTS hits (AID 624382). Type of experiment: functional. The note with it: read-out: IC50_Mean. In general terms: In fluorescence polarisation assays a small probe gives low polarisation when free and higher when bound to something large.
T5 sequence (P63165 whole entry): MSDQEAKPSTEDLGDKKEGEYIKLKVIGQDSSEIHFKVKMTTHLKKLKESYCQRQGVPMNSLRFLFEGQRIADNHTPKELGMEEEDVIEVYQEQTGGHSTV

Experiment [26] addresses T6, Probable nicotinate-nucleotide adenylyltransferase (Staphylococcus aureus (strain N315), UniProt P65502). Type of experiment: functional, Staphylococcus aureus subsp. aureus N315.
In experiment [27] the target is T6, Probable nicotinate-nucleotide adenylyltransferase. Type of experiment: functional, Staphylococcus aureus subsp. aureus N315. The note with it: read-out: IC50_Mean.
In experiment [28] the target is T4, Small ubiquitin-related modifier 2. Nature of the experiment: inhibitors of SUMO2 protein-protein interaction, dose response, selectivity assay for SUMO1 interaction inhibitor project, biochemical, FRET, human SUMO2, uHTS hits (AID 624384). Type of experiment: functional. The note with it: read-out: IC50_Mean.
Experiment [29] has as its target T5, Small ubiquitin-related modifier 1. Kind of experiment: inhibitors of SUMO1 partner interactions, dose response, biochemical, FRET (AID 624383). In kind it is functional. The note with it: read-out: IC50_Mean.
Experiment [30] has as its target Intestinal-type alkaline phosphatase (Mus musculus, UniProt P24822). Kind of experiment: PubChem AID 488785. In kind it is functional.
Experiment [31] deals with T7, Alkaline phosphatase, tissue-nonspecific isozyme (Homo sapiens, UniProt P05186).
T7 sequence (P05186 whole entry): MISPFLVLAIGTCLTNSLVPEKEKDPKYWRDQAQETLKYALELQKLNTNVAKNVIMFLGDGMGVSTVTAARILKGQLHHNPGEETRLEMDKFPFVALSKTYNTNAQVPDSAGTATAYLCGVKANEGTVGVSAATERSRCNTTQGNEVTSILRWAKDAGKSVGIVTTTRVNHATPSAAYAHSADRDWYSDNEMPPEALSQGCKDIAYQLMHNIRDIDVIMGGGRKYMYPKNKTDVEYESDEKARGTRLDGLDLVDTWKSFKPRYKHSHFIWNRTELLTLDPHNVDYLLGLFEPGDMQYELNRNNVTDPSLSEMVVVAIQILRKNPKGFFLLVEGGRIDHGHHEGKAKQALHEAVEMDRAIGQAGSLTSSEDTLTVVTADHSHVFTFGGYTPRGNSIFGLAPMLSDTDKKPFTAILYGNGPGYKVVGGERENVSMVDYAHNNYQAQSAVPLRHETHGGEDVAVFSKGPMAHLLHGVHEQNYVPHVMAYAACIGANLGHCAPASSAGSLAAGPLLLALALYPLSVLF
Kind of experiment: TNAP enzyme inhibition by screening hits, dose response, selectivity assay for mouse IAP inhibitor project, biochemical, human TNAP, uHTS hits (AID 488906). In kind it is functional.

For experiment [32], the target named is Intestinal-type alkaline phosphatase (Homo sapiens, UniProt P09923). Nature of the experiment: inhibition of human intestinal alkaline phosphatase – biochemical, dose response (AID 488876). Type of experiment: functional.
Intestinal-type alkaline phosphatase (Homo sapiens, UniProt P09923), sequence (P09923 whole entry): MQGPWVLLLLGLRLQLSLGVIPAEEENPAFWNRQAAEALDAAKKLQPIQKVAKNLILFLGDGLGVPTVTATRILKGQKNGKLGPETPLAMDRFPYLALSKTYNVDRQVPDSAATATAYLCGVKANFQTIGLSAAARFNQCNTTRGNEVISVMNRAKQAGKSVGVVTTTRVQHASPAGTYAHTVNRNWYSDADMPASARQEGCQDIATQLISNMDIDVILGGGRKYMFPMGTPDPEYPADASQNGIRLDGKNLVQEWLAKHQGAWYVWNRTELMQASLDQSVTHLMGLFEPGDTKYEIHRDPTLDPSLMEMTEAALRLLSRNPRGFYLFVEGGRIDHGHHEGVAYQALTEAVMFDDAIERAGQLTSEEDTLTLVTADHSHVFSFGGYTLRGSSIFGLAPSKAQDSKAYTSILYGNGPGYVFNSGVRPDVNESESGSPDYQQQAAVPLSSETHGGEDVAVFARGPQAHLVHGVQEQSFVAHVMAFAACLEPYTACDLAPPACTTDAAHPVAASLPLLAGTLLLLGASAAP

Protein disulfide-isomerase, sequence (P07237 whole entry): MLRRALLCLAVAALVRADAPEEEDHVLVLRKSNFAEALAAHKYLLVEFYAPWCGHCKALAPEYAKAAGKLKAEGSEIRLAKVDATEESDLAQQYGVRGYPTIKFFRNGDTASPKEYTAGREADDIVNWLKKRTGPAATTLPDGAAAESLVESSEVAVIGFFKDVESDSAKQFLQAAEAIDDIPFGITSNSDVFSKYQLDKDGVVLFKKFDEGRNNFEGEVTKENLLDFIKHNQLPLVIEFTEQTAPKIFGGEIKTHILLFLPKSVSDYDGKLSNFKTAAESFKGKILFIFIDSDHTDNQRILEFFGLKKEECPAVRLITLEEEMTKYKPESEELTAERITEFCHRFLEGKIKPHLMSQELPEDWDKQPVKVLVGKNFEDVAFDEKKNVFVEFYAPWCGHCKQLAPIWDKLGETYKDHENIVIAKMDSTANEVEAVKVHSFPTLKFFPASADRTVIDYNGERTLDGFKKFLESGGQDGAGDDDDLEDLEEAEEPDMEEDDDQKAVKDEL
T6 sequence (P65502 whole entry): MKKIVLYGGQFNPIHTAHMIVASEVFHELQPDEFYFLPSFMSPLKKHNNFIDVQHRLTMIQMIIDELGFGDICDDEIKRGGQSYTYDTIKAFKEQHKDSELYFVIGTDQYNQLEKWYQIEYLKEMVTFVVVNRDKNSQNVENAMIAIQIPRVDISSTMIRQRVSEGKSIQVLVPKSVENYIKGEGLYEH
T3 sequence (P11940 whole entry): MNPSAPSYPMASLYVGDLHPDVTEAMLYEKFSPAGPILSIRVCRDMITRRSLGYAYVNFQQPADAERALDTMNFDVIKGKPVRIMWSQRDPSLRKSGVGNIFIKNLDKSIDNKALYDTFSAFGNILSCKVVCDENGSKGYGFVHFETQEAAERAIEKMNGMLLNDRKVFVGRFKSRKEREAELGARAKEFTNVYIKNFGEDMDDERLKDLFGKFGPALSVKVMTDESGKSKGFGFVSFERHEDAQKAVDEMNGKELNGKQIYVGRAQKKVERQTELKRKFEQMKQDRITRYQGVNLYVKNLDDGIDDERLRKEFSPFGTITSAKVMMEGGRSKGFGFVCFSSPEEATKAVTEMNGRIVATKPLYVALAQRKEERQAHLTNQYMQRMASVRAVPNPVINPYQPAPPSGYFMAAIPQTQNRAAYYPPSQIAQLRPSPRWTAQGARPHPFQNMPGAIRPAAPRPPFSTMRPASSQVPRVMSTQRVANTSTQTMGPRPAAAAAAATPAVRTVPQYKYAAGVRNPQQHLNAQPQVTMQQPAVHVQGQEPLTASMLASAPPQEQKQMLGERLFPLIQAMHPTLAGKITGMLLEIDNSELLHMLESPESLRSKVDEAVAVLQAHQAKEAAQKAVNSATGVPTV
Beta-2 adrenergic receptor, sequence (P07550 whole entry): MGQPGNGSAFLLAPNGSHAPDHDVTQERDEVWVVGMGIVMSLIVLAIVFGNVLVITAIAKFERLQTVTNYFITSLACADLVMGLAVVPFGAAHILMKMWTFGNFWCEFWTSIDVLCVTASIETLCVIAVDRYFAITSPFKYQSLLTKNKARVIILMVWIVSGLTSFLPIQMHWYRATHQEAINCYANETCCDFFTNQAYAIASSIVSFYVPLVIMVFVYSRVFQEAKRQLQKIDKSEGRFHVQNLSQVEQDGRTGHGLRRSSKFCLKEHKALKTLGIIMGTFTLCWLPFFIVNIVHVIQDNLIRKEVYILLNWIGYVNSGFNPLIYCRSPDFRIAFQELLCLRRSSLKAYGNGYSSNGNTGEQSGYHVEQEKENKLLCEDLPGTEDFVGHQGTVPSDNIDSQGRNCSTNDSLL
Intestinal-type alkaline phosphatase (Mus musculus, UniProt P24822), sequence (P24822 whole entry): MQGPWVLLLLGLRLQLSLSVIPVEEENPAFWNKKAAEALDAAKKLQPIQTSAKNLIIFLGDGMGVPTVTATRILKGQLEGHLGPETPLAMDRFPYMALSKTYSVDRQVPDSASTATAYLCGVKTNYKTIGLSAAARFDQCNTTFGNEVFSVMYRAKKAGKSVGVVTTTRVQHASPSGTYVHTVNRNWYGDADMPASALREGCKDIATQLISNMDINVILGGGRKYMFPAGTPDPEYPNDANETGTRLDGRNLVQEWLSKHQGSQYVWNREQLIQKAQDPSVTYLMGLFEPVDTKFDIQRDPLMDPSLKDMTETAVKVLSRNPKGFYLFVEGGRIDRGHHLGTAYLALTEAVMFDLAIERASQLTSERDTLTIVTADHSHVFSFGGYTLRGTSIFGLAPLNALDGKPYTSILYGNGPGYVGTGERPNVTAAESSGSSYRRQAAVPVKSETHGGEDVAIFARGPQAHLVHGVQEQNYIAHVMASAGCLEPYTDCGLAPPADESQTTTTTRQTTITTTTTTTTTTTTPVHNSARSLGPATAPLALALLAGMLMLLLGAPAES

Take `O=C(O)C1C(c2ccccc2)C(C(=O)Oc2ccc(O)cc2)C1c1ccccc1` (stereo not drawn): the AC50 in experiment [1] was 14.6 µM (active).
As to `O=C(CSc1nnc(-c2ccncc2)n1Cc1ccco1)N1c2ccccc2Sc2ccc(Cl)cc21`, the EC50 in experiment [2] is 27.3 µM (active); in experiment [3], 0.343 µM (active).
Take `CC(=O)Nc1ccc(-c2nnc(SCc3ccc(C)cc3)n2C)cc1`: the EC50 in experiment [3] is 3.6 µM (active).
For `Nc1nc(CCl)nc(Nc2cccc3ccccc23)n1`, the EC50 was 0.288 µM (active) with BJ [4]; 3.74 µM (active) in experiment [5]; 2.73 µM (inconclusive) in the experiment on BJ [6]; 9.87 µM (inconclusive) in the experiment on BJ [7]; 1.98 µM (active) in experiment [8]; 6.34 µM (active) in the experiment with BJ [9].
On to `CNC[C@@H](Cc1ccccc1)NC[C@@H](CC1CCCCC1)NCCCc1ccccc1`, for which the EC50 in experiment [10] is 4.94 µM (inconclusive); in experiment [11] it was 7.68 µM (active); in the experiment on BJ [4], 5 µM (active); in experiment [12], > 120 µM (not active); in [13], 4.29 µM (active); in the experiment with BJ [6], 5.13 µM (inconclusive). Also, the EC50 in [14] was > 38 µM (not active); in the experiment with BJ [7], 5.72 µM (inconclusive); in experiment [8], 5.08 µM (active); with BJ [9], 0.532 µM (inconclusive). Moreover, the CC50 in [15] was 5.76 µM (active). The IC50 in [16] is > 20 µM (inactive). The AC50 is 6.49 µM (active) in the experiment on INS1 and 5.06 µM (active) in [17].
On to `CC1=CC2OC3CC4OC(=O)C=CC=CC(=O)OCCC(C)C(O)C(=O)OCC2(CC1O)C4(C)C31CO1` (stereo not drawn), for which the IC50 in experiment [18] was 49.7 µM (inactive).
Turning to `O=C(C[C@H]1C/C=C\C[C@@H](NC(=O)OCC2c3ccccc3-c3ccccc32)C(=O)O[C@@H](c2ccccc2)CNC1=O)N[C@H](CO)Cc1ccccc1`, the IC50 on Protein Wnt-3a was 20.8 µM (inactive).
Turning to `COc1ccc2c3c(ccc2c1)C(O)=C(C=O)CC3`, the AC50 was 2.94 µM (active) in [19] and 0.633 µM (active) in experiment [20]. Besides, in the experiment on Vero, the CC50 was > 40 µM (active). Also, the IC50 in [21] and in [22] was > 66 µM (inactive) in each case.
Consider `COc1ccc(Br)cc1/C=N/Nc1ccc(S(=O)(=O)Nc2ccccc2C(=O)O)cc1[N+](=O)[O-]`, for which the IC50 in [23] is 3.39 µM (active); in [24], 2.52 µM (active); in experiment [25], 4.47 µM (active); in experiment [26], 3.24 µM (active); in [27] it was 19.9 µM (active); in [28], 45.4 µM (inactive). Further, in experiment [29], the IC50 was 50.6 µM (inactive).
As to `O=C(c1c(O)cc(O)cc1O)C1c2c(cc(O)c3c2O[C@H](c2ccc(O)cc2)[C@@H](O)C3)OC1c1ccc(O)cc1` (stereo partly drawn) [DIHYDRODAPHNODORIN B], the IC50 in experiment [30] is 7.21 µM (active); in experiment [31], 19.7 µM (active); in [32] it was 18.3 µM (active). Besides, the AC50 in experiment [1] is 19.5 µM (active).
In the case of `O=C1C[C@@H](c2ccc(O[C@@H]3O[C@H](CO)[C@@H](O)[C@H](O)[C@H]3O)cc2)Oc2cc(O)ccc21` [LIQUIRITIN], the AC50 in experiment [1] was 15.6 µM (active).

Usually AC50 stands for the midpoint of the concentration-response curve, whichever way the signal moves. Usually EC50 stands for the concentration at which the effect is half-maximal.
